According to patent US10603357B2, “Therapeutic TREM-1 peptides” (Universite de Lorraine, priority 2004, dated 2020):

Legend:
BALB/c mice [1] = assay: CLP polymicrobial sepsis model in mice (Example 3); assay type: in vivo, mouse; conditions: 24 hours after CLP; control peptide, dose not given in table (100 μg in source)
Description: Male Balb/C mice (20 to 23 g) were randomly grouped and treated with normal saline (n=14) or the control peptide (n=14, 100 μg) or with P5 (100 μg) in a single infection at HO (n=18), H+4 (n=18) or H+24 (n=18). The last group of mice (n=18) was treated with repeated injections of P5 (100 μg) at H+4, H+8 and H+24.
Mice (n=15 per group) were treated with a single injection of normal saline or 10 μg, 20 μg, 50 μg, 100 μg or 200 μg of P5 at HO after the CLP and monitored for survival.
Mice (5 per group) were killed under anaesthesia at 24 hours after CLP. Bacterial counts in peritoneal lavage fluid and blood were determined and results are expressed as CFU per mL of blood and CFU per mouse for the peritoneal lavage.
Male Balb/C mice (7 to 9 weeks, 20 to 23 g) were anaesthetized by i.p. administration of ketamine and xylazine in 0.2 mL sterile pyrogen-free saline. The caecum was exposed through a 1.0 cm abdominal midline incision and subjected to a ligation of the distal half followed by two punctures with a G21 needle. A small amount of stool was expelled from the punctures to ensure patency. The caecum was replaced into the peritoneal cavity and the abdominal incision closed in two layers. After surgery all mice were injected s.c. with 0.5 ml of physiologic saline solution for fluid resuscitation and s.c. every 12 h with 1.25 mg (i.e. 50 μg/g) of imipenem. The animals were randomly grouped and treated with normal saline (n=14), the control peptide (n=14, 100 μg) or P5 (100 μg) in a single injection at HO (n=18), H+4 (n=18) or H+24 (n=18). The last group of mice (n=18) was treated with repeated injections of P5 (100 μg) at H+4, H+8 and H+24. All treatments were diluted into 500 μl of normal saline and administered i.p. The Inventors next sought to determine the effect of various doses of P5. For this purpose, mice (n=15 per group) were treated with a single injection of normal saline or 10 μg, 20 μg, 50 μg 100 μg or 200 μg of P5 at HO after the CLP and monitored for survival. Five additional animals per group were killed under anaesthesia 24 hours after CLP for the determination of bacterial count and cytokines levels. Peritoneal lavage fluid was obtained using 2 mL RPMI 1640 (Life Technologies) and blood was collected by cardiac puncture. Concentrations of TNF-α and IL-1β in the serum were determined by ELISA (BD Biosciences). For the assessment of bacterial counts, blood and peritoneal lavage fluid were plated in serial log dilutions on tryptic soy supplemented with 5% sheep blood agar plates. After plating, tryptic soy agar plates were incubated at 37° C. aerobically for 24 hours, and anaerobically for 48 hours. Results are expressed as CFU per mL of blood and CFU per mouse for the peritoneal lavage.

human monocytes = assay: in vitro stimulation of monocytes: TNF-α, IL-1β and sTREM-1 release; assay type: cell-based; conditions: P5 or control peptide 10 to 100 ng/mL, rIL-10 500 U/mL; for TNF-α and IL-1β production (release of inflammatory cytokines) in monocyte supernatant: LPS 1 μg/mL or LPS + anti-TREM-1 mAb; for release of sTREM-1 from monocytes cultured with LPS: LPS 1 μg/mL
Description: For cell activation, primary monocytes were cultured in 24-well flat-bottom tissue culture plates in the presence of LPS (1 μg/mL). In some experiments this stimulus was provided in combination with P5 (10 to 100 ng/mL), control peptide (10 to 100 ng/mL) or rIL-10 (500 U/mL). To activate monocytes through TREM-1, an agonist anti-TREM-1 mAb (10 μg/mL) was added as indicated. Cell-free supernatants were analysed for production of TNF-α, IL-1β. and sTREM-1 by ELISA or immunodot. All experiments were performed in triplicate and data are expressed as means (SEM). • a: Media • b: P5 10 ng/mL • c: Anti-TREM-1 • d: LPS • e: LPS+Anti-TREM-1 • f: LPS+P5 10 ng/mL • g: LPS+P5 50 ng/mL • h: LPS+P5 100 ng/mL • i: LPS+IL10
Ten mL of peripheral blood samples were collected on EDTA-K from 5 healthy volunteer donors originating from laboratory staff. After dilution in RPMI (Life Technologies, Grand Island, N.Y.) v/v, blood was centrifuged for 30 min at room temperature over a Ficoll gradient (Amersham Pharmacia, Uppsala, Sweden) to isolate PBMC. The cells recovered above the gradient were washed and counted. In order to deplete the suspensions of lymphocytes, cells were then plated in 24-well flat-bottom tissue culture plates (Corning, Corning, N.Y.) at a concentration of 5×10^6/mL and allowed to adhere during 2 hours at 37° C. The resulting lymphocyte suspension was discarded and the adhering monocytic cells were maintained in a 5% CO2 incubator at 37° C. in complete medium (RPMI 1640, 0.1 mM sodium pyruvate, […], 50 μg/mL Streptomycin; Life Technologies) supplemented with 10% FCS (Invitrogen, Cergy, France).
For activation, monocytes were cultured in the presence of E. coli LPS (0111:B4, 1 μg/mL, Sigma-Aldrich, La Verpillière, France). Cell viability was assessed by trypan blue exclusion and by measuring lactate dehydrogenase release. In some experiments, this stimulus was given in combination with TNF-α (5 to 100 ng/mL, R&D Systems, Lille, France), IL-1β (5 to 100 ng/mL, R&D Systems), rIFN-γ (up to 100 U/mL, R&D Systems), rIL-10 (500 U/ml, R&D Systems) or up to 100 ng/mL of P5 or control peptide.
In order to activate monocytes through TREM-1, an anti-TREM-1 agonist monoclonal antibody (R&D Systems) was added as follows: flat-bottom plates were precoated with 10 μg/mL anti-TREM-1 per well. After thorough washing in phosphate buffered saline (PBS), the monocyte suspensions were added at a similar concentration as above. Some experiments were performed in the presence of protease inhibitors (PMSF and Protease Cocktail Inhibitor; Invitrogen). Cell-free supernatants were assayed for the production of TNF-α and IL-1β by ELISA according to the recommendations of the manufacturer (BD Biosciences, San Diego, USA). To address the effect of P5 on NF-κB activity in monocytes, an ELISA-based assay was performed (BD Mercury™ Transfactor Kit, BD Biosciences). Monocytes were cultured for 24 hours in the presence of E. coli LPS (O111:B4, 1 μg/mL), and/or an agonist anti-TREM-1 monoclonal antibody (10 μg/mL), and/or P5 (100 ng/mL). Whole-cell extracts were then prepared and levels of NF-κB p50 and p65 were determined according to the recommendations of the manufacturer. All experiments were performed in triplicate and data are expressed as means (SEM). Identification and Quantitation of sTREM-1 Release
Primary monocytes suspensions were cultured as described above. The cells were treated with E. coli LPS (0111:B4, 1 μg/mL) for 24 hours at 37° C. Cell-conditioned medium was submitted to Western-blotting using an anti-TREM-1 monoclonal antibody (R&D Systems) in order to confirm the presence of 27 kDa material recognized by anti-TREM-1. Soluble TREM-1 levels were measured by assessing the optical intensity of bands on immunodots by means of a reflectance scanner and the Quantity One Quantitation Software (Bio-Rad, Cergy, France) as reported elsewhere (18). […]

BALB/c mice [2] = assay: LPS-induced endotoxaemia, survival of mice (Example 1); assay type: in vivo, mouse
Description: BALB/c mice (10 per group) were injected intraperitoneally with 200 μg LPS. The TREM-1 peptides P1, P2, P3, or P5 (200 μl of a 300 μM solution per mouse) were injected intraperitoneally 1 hour before LPS. Viability of mice was monitored twice a day for 7 days. Statistical analysis was performed by Logrank test. Data from control mice represent cumulative survival curves from two independent experiments performed under identical conditions.
BALB/c mice (10 per group) were injected intraperitoneally with 200 μg LPS. TREM-1 peptide P1, 200 μl of a 300 μM solution per mouse was injected intraperitoneally 1 hour before or 4 hours after LPS. Viability of mice was monitored twice a day for 7 days. Statistical analysis was performed with the Logrank test. Data from control mice represent cumulative survival curves from two independent experiments performed under identical conditions
BALB/c mice (10 per group) were injected intraperitoneally with 200 μg LPS. P1 peptide, 200 μl of a 150, 300 and 600 μM solution per mouse (dots) or P3, 200 μl of a 600 μM solution per mouse (filled squares) were injected intraperitoneally 4 hours after LPS. Viability of mice was monitored twice a day for 7 days. Statistical analysis was performed with the Logrank test
In the experiments of this example, the peptides were administered in a volume of 200 μl of the solution molarity indicated. To assess the ability of TREM1-peptides to protect mice from LPS-induced endotoxaemia, the Inventors administered peptides P1, P2, P3 and P5 (300 μM) 1 hour before a lethal dose of lipopolysaccharide (LPS) (FIG. 2). Lethality was monitored over time and compared with animals that had received control injections of vehicle alone. P5 injection confers maximal protection, with 90% of the animals still alive 7 days after LPS injection, as compared with 10% of control mice (p<0.001). 60% of the P1-treated mice and 50% of the P2 treated mice survived endotoxaemia as compared with 10% of control mice (p<0.01 and p<0.05 respectively).
In order to investigate whether TREM-1 peptide treatment could be delayed until after the administration of LPS, the Inventors injected the peptides at 4 hours after LPS injection. […] 80% of the mice injected with P1 4 hours after LPS survived endotoxaemia compared to 60% of mice treated 1 h before LPS and 10% of mice treated with vehicle alone (p<0.001 and p<0.01 respectively). Thus, P1 is effective even when injected after the outbreak of endotoxaemia. […] P1 administration conferred maximal protection (80%) when administered at 600 μM (p<0.01) and the level of protection dropped to 50% at 300 μM (p<0.05) and further down to 30% at 150 μM as compared to 20% of control mice, indicating a dose dependent effect of P1 (FIG. 4). The Inventors then investigated whether P1 protects against septic shock in the “CLP” model (Cecal Ligation and Puncture is a widely used experimental model of sepsis). Mice treated with two doses of P1 at 5 and 24 hours after CLP were protected from death as compared to control treated mice (p=0.0791) although the difference was not statistically significant. 40% of the mice injected with P1 at 5 days after CLP survived compared to 5% of mice treated with P3 peptide.

C57BL/6 mice = assay: cecal ligation and puncture (CLP), survival of mice (Example 1); assay type: in vivo, mouse; conditions: 200 μl of 600 μM i.p. 5 and 24 hours after CLP; 5 days after CLP; 15 per group
Description: CLP was induced in C57BL/6 mice (15 per group) as described in Materials and Methods. P1 peptide (empty dots) or P3 peptide (filled squares) (200 μl of a 600 μM solution per mouse) were injected intraperitoneally 5 and 24 hours after CLP induction. Viability of mice was monitored twice a day for 10 days. Statistical analysis was performed with the Logrank test.
In order to investigate whether TREM-1 peptide treatment could be delayed until after the administration of LPS, the Inventors injected the peptides at 4 hours after LPS injection. […] 80% of the mice injected with P1 4 hours after LPS survived endotoxaemia compared to 60% of mice treated 1 h before LPS and 10% of mice treated with vehicle alone (p<0.001 and p<0.01 respectively). Thus, P1 is effective even when injected after the outbreak of endotoxaemia. […] P1 administration conferred maximal protection (80%) when administered at 600 μM (p<0.01) and the level of protection dropped to 50% at 300 μM (p<0.05) and further down to 30% at 150 μM as compared to 20% of control mice, indicating a dose dependent effect of P1 (FIG. 4). The Inventors then investigated whether P1 protects against septic shock in the “CLP” model (Cecal Ligation and Puncture is a widely used experimental model of sepsis). […]

[3] = tested on: TREM-1/TREM-1 ligand interaction; assay: competition of soluble mouse TREM-1/IgG1 binding to TREM-1 ligand positive peritoneal exudate cells (flow cytometry); conditions: peptides 100 and 500 μM, pre-incubated 45 minutes on ice; 2 μg/ml mouseTREM-1/hIgG1
Description: Cytofluorimetric analysis of peritoneal exudate cells with 2 μg/ml of mouseTREM-1/hIgG1 in the presence of a 500 μM solution per mouse (thin line), 100 μM solution per mouse (dotted line) or absence (thick line) of the peptides is shown. The grey histogram represents immunostaining with human IgG1 as a control.
A possible mechanism of action could be the ability of TREM-1 derived peptide to interfere with TREM-1/TREM-1 ligand interaction. To address this question the Inventors performed competition experiments on TREM-1 ligand positive cells: PEC (Peritoneal Exudate Cells) from CLP treated mice.
Peritoneal exudate cells (PEC) from mice suffering from a caecal ligation and puncture (CLP)-induced peritonitis were subjected to flow cytometry analysis after incubation with a PE-conjugated anti-human IgG1 (Jackson Immunoresearch, Bar Harbor, USA). Competition with TREM-1 peptides was performed by pre-incubating cells with the indicated concentrations of peptides for 45 minutes on ice before adding mTREM-1-IgG1.

Molecule | TNF-α and IL-1β production (release of inflammatory cytokines) in monocyte supernatant (human monocytes) | release of sTREM-1 from monocytes cultured with LPS (human monocytes) | inhibition of TREM-1 interaction with its ligand (mTREM-1/IgG1 binding to PEC) [3] | other results
TDSRCVIGLYHPPLQVY [P5sc, reference compound] | no action | no action | – | Serum IL-1β (BALB/c mice [1]): 841 ± 204 pg/mL; Serum TNF-α (BALB/c mice [1]): 105 ± 12 pg/mL; Serum sTREM-1 (BALB/c mice [1]): 52 ± 3 ng/mL
TTTRSLPKPTAVVSSPG [P3] | – | – | ineffective | time within which all treated mice died after LPS injection (BALB/c mice [2]; 200 μl of 300 μM peptide i.p. 1 hour before LPS): ≤ 4 days; mice surviving after CLP (C57BL/6 mice): 5%
VIYHPPNDPVVLFHPVRLVVTKG (listed as Mus musculus) [P2] | – | – | inhibit TREM-1 interaction with its ligand in a dose dependent manner | animals alive 7 days after LPS injection (BALB/c mice [2]; 200 μl of 300 μM peptide i.p. 1 hour before 200 μg LPS i.p., 10 mice per group (FIG. 2, 3)): 50%
IL-10: rIL-10 (500 U/ml, R&D Systems) (protein, UniProt P22301 19-178, looked up) Interleukin-10: SPGQGTQSENSCTHFPGNLPNMLRDLRDAFSRVKTFFQMKDQLDNLLLKESLLEDFKGYLGCQALSEMIQFYLEEVMPQAENQDPDIKAHVNSLGENLKTLRLRLRRCHRFLPCENKSKAVEQVKNAFNKLQEKGIYKAMSEFDIFINYIEAYMTMKIRN | totally inhibited | totally inhibited | – | –
